Assays:
[1] = system: HL7702 cells; experiment: Phospho Explorer Antibody Microarray, HN252 treatment; type: cell-based; settings: 2-hours exposure, HN252 5 μM
[2] = system: HL7702 cells; experiment: Western blot of protein phosphorylation after HN252 treatment; type: cell-based
Protocol: HL7702, COS7, PC‐3 and HCT116 cells were purchased from the Cell Bank of the Shanghai Institute for Biological Sciences, Chinese Academy of Science. HCT116, COS7 and PC3 cells were cultured in DMEM (Gibco); HL7702 cells were cultured in RPMI 1640 medium (Gibco). All media were supplemented with 10% foetal bovine serum (Biological Industries), 100 IU penicillin and […] streptomycin at 37°C in a humidified incubator with 5% CO2.

[3] = system: HL7702 cells with PPM1B shRNA; experiment: Phospho Explorer Antibody Microarray, PPM1B knockdown plus HN252; settings: in the presence of HN252
Protocol: Phosphorylation profiling was performed by using the Phospho Explorer Antibody Microarray from Full Moon BioSystems, Inc (Sunnyvale, CA), according to the protocol which was previously described. ^24 In brief, cell lysates obtained from HL7702 cells treated by HN252 or DMSO for different hours or transfected with lentiviral vectors carrying shRNAs for 36 h were biotinylated with the Antibody Array Assay Kit (Full Moon BioSystems, Inc), and the data were analysed with the GenePixTM Pro 4.0 image analysis software.

[4] = target: T1, PPM1F (Homo sapiens, UniProt P49593); experiment: pNPP hydrolysis phosphatase assay (selectivity panel); type: biochemical; settings: pNPP as substrate
T1 sequence (P49593 1-454): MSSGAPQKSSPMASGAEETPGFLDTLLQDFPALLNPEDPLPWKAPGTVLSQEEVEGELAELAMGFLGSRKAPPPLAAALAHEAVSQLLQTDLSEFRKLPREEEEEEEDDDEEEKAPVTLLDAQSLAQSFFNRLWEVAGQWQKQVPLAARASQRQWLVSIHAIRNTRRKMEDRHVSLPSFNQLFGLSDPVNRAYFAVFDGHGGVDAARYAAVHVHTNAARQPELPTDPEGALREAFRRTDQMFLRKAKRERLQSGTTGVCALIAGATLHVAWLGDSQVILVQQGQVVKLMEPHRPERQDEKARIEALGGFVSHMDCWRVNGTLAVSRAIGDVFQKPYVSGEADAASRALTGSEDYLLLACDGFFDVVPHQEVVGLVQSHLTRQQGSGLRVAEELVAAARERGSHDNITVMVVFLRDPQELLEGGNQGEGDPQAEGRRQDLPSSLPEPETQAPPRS

[5] = target: T2, PHLPP2 (Homo sapiens, UniProt Q6ZVD8); experiment: as above; type: biochemical; settings: pNPP as substrate
T2 sequence (Q6ZVD8 1-1323): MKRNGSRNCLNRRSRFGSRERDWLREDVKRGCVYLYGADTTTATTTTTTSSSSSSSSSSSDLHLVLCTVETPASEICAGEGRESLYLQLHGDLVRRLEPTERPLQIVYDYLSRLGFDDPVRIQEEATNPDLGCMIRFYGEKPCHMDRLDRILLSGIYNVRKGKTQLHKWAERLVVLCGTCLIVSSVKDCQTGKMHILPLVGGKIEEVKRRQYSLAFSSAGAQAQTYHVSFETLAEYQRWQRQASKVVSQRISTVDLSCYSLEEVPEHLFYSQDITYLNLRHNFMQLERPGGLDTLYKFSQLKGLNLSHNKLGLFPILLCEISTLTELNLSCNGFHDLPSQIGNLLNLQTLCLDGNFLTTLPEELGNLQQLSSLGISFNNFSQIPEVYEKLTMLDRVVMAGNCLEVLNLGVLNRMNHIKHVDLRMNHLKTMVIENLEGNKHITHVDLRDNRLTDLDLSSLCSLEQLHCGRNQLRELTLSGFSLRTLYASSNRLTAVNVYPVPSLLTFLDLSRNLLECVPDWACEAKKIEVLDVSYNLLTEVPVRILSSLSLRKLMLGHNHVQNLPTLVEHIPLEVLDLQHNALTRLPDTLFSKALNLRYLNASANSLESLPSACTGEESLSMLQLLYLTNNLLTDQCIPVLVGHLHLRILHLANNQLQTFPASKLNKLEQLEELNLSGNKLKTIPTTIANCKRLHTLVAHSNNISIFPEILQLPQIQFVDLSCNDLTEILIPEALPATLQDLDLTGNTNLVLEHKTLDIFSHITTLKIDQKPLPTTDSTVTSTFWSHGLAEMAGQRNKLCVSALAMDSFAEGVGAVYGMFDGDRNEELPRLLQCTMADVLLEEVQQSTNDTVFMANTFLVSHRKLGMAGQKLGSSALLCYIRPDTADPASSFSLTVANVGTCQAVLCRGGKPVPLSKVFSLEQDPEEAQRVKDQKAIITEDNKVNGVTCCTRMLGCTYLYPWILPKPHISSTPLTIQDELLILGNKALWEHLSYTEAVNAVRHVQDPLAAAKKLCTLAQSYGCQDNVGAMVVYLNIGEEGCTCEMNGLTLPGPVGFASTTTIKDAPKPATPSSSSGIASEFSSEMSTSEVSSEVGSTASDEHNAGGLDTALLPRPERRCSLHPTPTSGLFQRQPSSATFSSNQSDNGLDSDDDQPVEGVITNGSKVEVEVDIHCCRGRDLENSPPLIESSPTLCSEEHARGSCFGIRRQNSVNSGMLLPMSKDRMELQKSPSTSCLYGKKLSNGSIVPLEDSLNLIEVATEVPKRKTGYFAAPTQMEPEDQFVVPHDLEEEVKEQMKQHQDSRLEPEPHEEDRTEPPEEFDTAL

[6] = immunoblotting, HN252 5 μM, 2 h

For `Nc1cc(-c2ccc(-c3ccc(O)c(O)c3)cc2)ccc1C(=O)O` [HN252], the “number of proteins with enhanced phosphorylation (1.5-fold vs control) also elevated in PPM1B knockdown cells” value [1] was 30, the “phosphorylation of JNK” value [2, 6] was “up‐regulated” and the “phosphorylation of β-catenin” value [2, 6] was “enhanced phosphorylation”. For the same compound, the “phosphorylation of AMPKα, CDK2 and p38” value ([2]; increasing concentration of HN252, 2 h) was “dramatically increased”, the “number of proteins with further enhanced phosphorylation compared to PPM1B knockdown (>1.5-fold)” value [3] was 8 and the IC50 [4] was 30.6 ± 4.05 µM. It also gave an IC50 [5] of 20.9 ± 1.74 µM.

From publication PMC7701510, “Identification of HN252 as a potent inhibitor of protein phosphatase PPM1B” (Journal of Cellular and Molecular Medicine, 2020)
